Results from patent publication US20260174707A1, “USE OF GNRH ANTAGONIST IN REGULATION AND CONTROL OF ESTRUS OF MAMMAL” (priority 2022, published 2026).
Marks after values point to notes of the source that are not given here. Where a SMILES comes first, the peptide text is derived from it. [ ]: non-standard residue; d: D form. The star is where a group is joined. dPhe(4-NHCONH2) = NC(=O)Nc1ccc(C[C@@H](N)C(=O)O)cc1; Dihydroorotyl(S) = O=C1C[C@@H](C(=O)*)NC(=O)N1; dPhe(4-Cl) = N[C@H](Cc1ccc(Cl)cc1)C(=O)O; Phe(4-NH2) = Nc1ccc(C[C@H](N)C(=O)O)cc1; d2Nal = N[C@H](Cc1ccc2ccccc2c1)C(=O)O; Lys(iPr) = CC(C)NCCCC[C@H](N)C(=O)O; d3Pal = N[C@H](Cc1cccnc1)C(=O)O

Assays:
Assay type in all cases: in vivo
[1] = test system: gilts; assay: Oestrus synchronization of gilts (inhibitor, then PMSG); conditions: 1,000 units PMSG im on 20th day
Method: Comparison of experiments of administering Degarelix and altrenogest in achieving oestrus synchronization in gilts was performed. Twelve healthy adult gilts were selected and divided into two groups, namely an altrenogest group and a Degarelix group, with 6 gilts in each group. Among them, gilts in the altrenogest group were fed 20 mg of altrenogest every day for 18 consecutive days, while gilts in the Degarelix group were intramuscularly injected with 15 μg/kg body weight of Degarelix only on the first day. Both groups of gilts were intramuscularly injected with 1,000 units of PMSG on the 20th day after the first administration, then test whether the gilts in different treatment groups can achieve the estrus synchronization.

[2] = test system: female mice; assay: Oestrus inhibition in female mice (daily vaginal smear); conditions: only subcutaneous injection once
Method: Twenty-four 6-week-old female mice were selected and divided into 4 groups, with 6 mice in each group. The female mice in the negative control group were subcutaneously injected with normal saline, the female mice in the Abarelix group were subcutaneously injected with a dosage of 2 mg/kg/day for 8 consecutive days, the female mice in the Cetrorelix group were subcutaneously injected with a dosage of 2 mg/kg/day for 8 consecutive days, and the female mice in the Degarelix group were subcutaneously injected once with a dose of 2 mg/kg. After administration, vaginal smear experiments were performed on female mice every day to detect the stage of the oestrus cycle of female mice in each group. […] Thirty-two 6-week-old female mice were selected and divided into 4 groups, with 8 mice in each group. The female mice in the negative control group were subcutaneously injected with normal saline, and the female mice in the three Degarelix groups were subcutaneously injected with different dosages (0.4 mg/kg, 0.6 mg/kg and 1.0 mg/kg) of Degarelix once. After administration, vaginal smear experiments were performed on female mice every day to detect the oestrous condition.

[3] = test system: male dogs; assay: Inhibiting effect on male dogs (serum testosterone, scrotum circumference, sexual behavior); conditions: 1.5 mg/kg subcutaneous
Method: Adult healthy male dogs with normal reproductive capacity were selected and divided into an experimental group and a control group. Each group of the animals was treated with subcutaneous injections, male dogs in the control group were injected with normal saline, and male dogs in the experimental group were injected with 1.5 mg/kg body weight of Degarelix, the treated animals in each group were fed and observed in the same way. Blood was collected from the animals regularly to measure and record the concentration of testosterone in serum (blood was collected and detected before the injection of drugs, and 1 h, 2 h, 4 h, 6 h, 8 h, 24 h, 48 h, 72h, 120 h and 168 h after the injection of drugs, and after that, the blood was collected every 168 h (1 week) until the end of the experiment), and scrotum circumference of male animals was measured and recorded regularly, sexual behavior of the male animals was observed and recorded, and compared with that of male animals in the control group.

[4] = test system: female dogs; assay: Inhibiting effect on female dogs in proestrus; conditions: 1.5 mg/kg subcutaneous
Method: Healthy female dogs in proestrus (the proestrus period was less than 3 days) were selected and divided into an experimental group and a control group. Each group of the animals was treated with subcutaneous injections, the female dogs in control group were injected with normal saline, and the female dogs in experimental group were injected with 1.5 mg/kg body weight of Degarelix, each group of the treated animals was fed and observed in the same way to detect the oestrus of the female dogs.

[5] = test system: sowpigs; assay: Oestrus inhibition in sowpigs (oestrus performance observed); conditions: intramuscular injection once
Method: Thirty healthy adult sowpigs were selected and divided into a control group and Degarelix experimental groups, with 6 sowpigs in each group. The four Degarelix experimental groups were intramuscularly injected with different doses of Degarelix, namely 10 μg/kg body weight, 20 μg/kg body weight, 40 μg/kg body weight and 160 μg/kg body weight, respectively. The control group was intramuscularly injected with normal saline, and the oestrus performance (e.g., vulva performance and static reaction) of the sowpigs was observed and recorded to determine whether the sowpigs were in oestrus, and the time to restore oestrus after administration was recorded.

[6] = test system: female mice; assay: Oestrus synchronization of female mice (Degarelix, then PMSG and HCG); conditions: 1.0 mg/kg sc; 5 units PMSG ip on 14th day; 5 units HCG ip after 46 hours
Method: It was discovered from the oestrus inhibition experiments that a dose of 1.0 mg/kg can inhibit oestrus of female mice for at least 15 days. Six 6-week-old female mice were selected for further oestrus synchronization experiments. The specific method was as follows: the female mice were subcutaneously injected 1.0 mg/kg of Degarelix, and intraperitoneally injected 5 units of PMSG on the 14th day after administration, and intraperitoneally injected 5 units of HCG after 46 hours, and then the oestrus of the female mice was detected.

[7] = gilts, 15 μg/kg im only on first day
[8] = gilts fed 20 mg every day for 18 days

Row | Structure (SMILES) | Days after PMSG injection on which gilts were in oestrus [1, 7] | Number of days over which gilts were concentrated in oestrus [1, 7] | Oestrus of all gilts after administration of exogenous hormones [1, 7] | Time of inhibiting oestrus ([2]; low dose 0.4 mg/kg) | Time of inhibiting oestrus ([2]; middle dose 0.6 mg/kg) | Sexual behaviour [3] | Scrotal circumference ([3]; after a period of treatment) | Erection and semen collection ([3]; after treatment) | Testosterone concentration in serum ([3]; compared to control group) | Oestrus stage by vaginal smear [4] | Oestrus symptoms (vulvar redness and swelling, vaginal discharge of mucus) [4] | Time to restore oestrus after administration ([5]; 10 μg/kg) | Time to restore oestrus after administration ([5]; 20 μg/kg) | Time to restore oestrus after administration ([5]; 40 μg/kg) | Days on which female mice were concentrated in oestrus [6] | Days after PMSG injection on which gilts were in oestrus [1, 8] | Number of days over which gilts were concentrated in oestrus [1, 8] | Oestrus of all gilts after administration of exogenous hormones [1, 8]
1 | CC(=O)N[C@H](Cc1ccc2ccccc2c1)C(=O)N[C@H](Cc1ccc(Cl)cc1)C(=O)N[C@H](Cc1cccnc1)C(=O)N[C@@H](CO)C(=O)N[C@@H](Cc1ccc(NC(=O)[C@@H]2CC(=O)NC(=O)N2)cc1)C(=O)N[C@H](Cc1ccc(NC(N)=O)cc1)C(=O)N[C@@H](CC(C)C)C(=O)N[C@@H](CCCCNC(C)C)C(=O)N1CCC[C@H]1C(=O)N[C@H](C)C(N)=O [Degarelix] (Ac-[d2Nal][dPhe(4-Cl)][d3Pal]S[Phe(4-NH2)](Dihydroorotyl(S))[dPhe(4-NHCONH2)]L[Lys(iPr)]P[dA]-NH2) | 3rd to the 5th day | 3 days | in oestrus within one week | 7.13 ± 2.09^b days | 8.50 ± 3.54^bc days | significantly reduced | significantly reduced | abnormal erections and no semen could be collected | decreased significantly | quickly changed from proestrus to diestrus | gradually disappeared 3 days after the injection | 21.50 ± 2.45^b days | 38.83 ± 2.37^c days | 53.83 ± 3.16^d days | 17th and 18th days | – | – | –
2 | C=CC[C@]1(O)CC[C@H]2[C@@H]3CCC4=CC(=O)CCC4=C3C=C[C@@]21C [altrenogest] | – | – | – | – | – | – | – | – | – | – | – | – | – | – | – | 3rd day to the 6th day | 4 days | in oestrus within one week
